In patent publication US11679159B2, “Compositions for transfecting resistant cell types” (Precision Nanosystems ULC, priority 2018, dated 2023):

Tested on: NPC
Test: GFP levels in NPC measured by flow cytometry, KC2 and DLin-MC3-DMA substituted as ionizable lipid
Type: cell-based, human
Details: 48 H, ionizable lipid in the Lipid Mix K, over the control Lipid Mix A (FIG. 11)
Excerpt: Two commonly used ionizable lipids, KC2 and DLin-MC3-DMA, were substituted for the ionizable lipid component for Lipid Mixes A and K. NPC were transfected as specified above, and the results at 48 H for GFP Median Fluorescent Intensity via flow cytometry are shown in FIG. 11. Both KC2 and DLin-MC3-DMA (MC3 in the graph) were effective in the Lipid Mix K to enhance GFP expression over the control Lipid Mix A. PNI-IL-1 is 1,17-bis(2-octylcyclopropyl)heptadecan-9-yl 4-(dimethylamino)butanoate HCl).

| SMILES | GFP Median Fluorescent Intensity via flow cytometry |
| --- | --- |
| CCCCCC=CCC=CCCCCCCCCC(CCCCCCCCC=CCC=CCCCCC)OC(=O)CCCN(C)C (centres unmarked) [DLin-MC3-DMA, heptatriaconta-6,9,28,31-tetraen-19-yl 4-(dimethylamino)butanoate] | effective |
| CCCCC/C=C\C/C=C\CCCCCCCCC1(CCCCCCCC/C=C\C/C=C\CCCCC)OCC(CCN(C)C)O1 (centres unmarked) [KC2, 2,2-dilinoleyl-4-(2-dimethylaminoethyl)-[1,3]-dioxolane] | effective |
